Patent US20100311790A1 (priority 2007, published 2010)

Legend:
Sclerotinia sclerotiorum = experiment: Test Examples 2 and 3: preventive effect on Sclerotinia rot disease of cucumber, foliar spray; assay type: in vivo; conditions: cucumber (Sagami Hanjiro), flowable formulation diluted to 200 ppm, foliar spray before inoculation, 18° C. for 4 days under high humidity
Procedure: (§1) The area of lesions on the test plants at testing was visually observed, and the control effect was evaluated by comparing the area of lesions on test plants treated with the invented compound with the area of lesions on untreated plants.
Test for Showing Preventive Effect on Sclerotinia Rot Disease of Cucumber (Sclerotinia sclerotiorum)
Sand soil was packed in a plastic pot, and seeds of cucumber (variety: Sagami Hanjiro) were sowed therein and grown for 12 days in a greenhouse. […] After spraying, the plant was air-dried and PDA medium containing hyphae of Sclerotinia sclerotiorum was placed on the surface of leaves of the cucumber. After the inoculation, the plant was left at 18° C. for 4 days under high humidity, area of lesions was examined. As a result, the lesion area on the plant treated with the invented compounds (1), (3)-(27) and (28) was less than 10% of the lesion area on the untreated plant.
Sand soil was packed in a plastic pot, and seeds of cucumber (variety: Sagami Hanjiro) were sowed therein and grown for 12 days in a greenhouse. The invented compound (2) was formulated into flowable formulation in accordance with Formulation Example 6, and it was diluted with water to a given concentration (200 ppm) and was sprayed onto the foliage of the cucumber so that a sufficient amount of the compound would be applied to the surface of leaves of the cucumber. […]

Botrytis cinerea = experiment: Test Example 1: preventive effect on Botrytis disease of cucumber, foliar spray; assay type: in vivo; conditions: cucumber (Sagami Hanjiro), flowable formulation diluted to 13 ppm, foliar spray before inoculation, 12° C. for 5 days under high humidity
Procedure: as §1
Test for Showing Preventive Effect on Botrytis Disease of Cucumber (Botrytis cinerea)
Sand soil was packed in a plastic pot, and seeds of cucumber (variety: Sagami Hanjiro) were sowed therein and grown for 12 days in a greenhouse. Each of the invented compounds (2), (3), (7), (11), (12), (15), (16), (18), (19), (21), (23), (24) and (27) and the comparative compound (A) was formulated into flowable formulation in accordance with Formulation Example 6, and it was diluted with water to a given concentration (13 ppm) and was sprayed onto the foliage of the cucumber so that a sufficient amount of the compound would be applied to the surface of leaves of the cucumber. After spraying, the plant was air-dried and PDA medium containing spores of Botrytis cinerea was placed on the surface of leaves of the cucumber. After the inoculation, the plant was left at 12° C. for 5 days under high humidity, and then the area of lesions was examined. As a result, the lesion area on the plant treated with the invented compounds (2), (3), (7), (11), (12), (15), (16), (18), (19), (21), (23), (24) and (27) was less than 30% of the lesion area on the untreated plant. […]

Compound: C=CCCOc1cccc(CNC(=O)c2ccc3ncccc3c2)c1F [(2)]
- lesion area on the treated plant as % of the lesion area on the untreated plant (Sclerotinia sclerotiorum): less than 10%

Compound: CC(C)=CCOc1cccc(CNC(=O)c2ccc3ncccc3c2)c1 [comparative compound (A), N-[3-(3-methyl-2-butenyloxy)phenyl]methyl-quinoline-6-carboxamide]
- lesion area on the treated plant as % of the lesion area on the untreated plant (Botrytis cinerea): 98%
